Experimental data as given in patent publication US20230192617A1, “AZABICYCLIC(THIO)AMIDES AS FUNGICIDAL COMPOUNDS” (Bayer CropScience Aktiengesellschaft, priority 2020, published 2023).

Experiments:
Botrytis cinerea [1] = test: In vivo preventive test on Botrytis cinerea (grey mould); conditions: 500 ppm of active ingredient, preventive spray on gherkin or cabbage, evaluated 4 to 5 days after inoculation, read-out: efficacy
Summary of the method: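 Preventive spray on cabbage or gherkin seedlings, with compound formulated in DMSO/acetone/Tween 80 and water-diluted, preceded spore inoculation by 24 hours. Cabbage was held 4 to 5 days at 20° C., 100% relative humidity; gherkin 4 to 5 days at 17° C., 90% relative humidity.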

Pyrenophora teres [2] = test: In vivo preventive test on Pyrenophora teres (net blotch on barley); conditions: 240 h, 500 ppm of active ingredient, preventive spray on barley, evaluated 10 days after inoculation, read-out: efficacy
Summary of the method: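 Net blotch spores were sprayed onto barley leaves one day after foliar treatment with water-diluted DMSO/acetone/Tween 80 formulations (solvent-only controls). Plants were kept at 20° C: first 48 hours at 100% relative humidity, then 8 days at 70-80%.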

[3] = tested on: Colletotrichum lindemuthianum; test: In vivo preventive test on Colletotrichum lindemuthianum (leaf spot on bean); conditions: 168 h, 500 ppm of active ingredient, preventive spray on bean, evaluated 7 days after inoculation, read-out: efficacy
Summary of the method: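 Young bean plants sprayed with compound in DMSO/acetone/Tween 80 diluted in water; solvent-only controls. Inoculated 24 h later with C. lindemuthianum spore suspension, then kept 24 h at 20 °C/100% RH and 6 days at 20 °C/90% RH.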

Alternaria alternata = Alternaria alternata in vitro cell test; assay type: cell-based; conditions: 120 h, 20 ppm of active ingredient, liquid culture, 5 days incubation, spectrometric measurement of mycelium growth, read-out: efficacy (inhibition of fungal growth)
Summary of the method: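 Spectrometric readout of mycelial growth after 5-day incubation gauged compound effects on spore germination and growth of A. alternata in liquid medium. Compounds were delivered in DMSO at ≤1% final. Absorbance was compared with untreated controls to give inhibition.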

[4] = tested on: Colletotrichum lindemuthianum; test: B-8. Colletotrichum lindemuthianum in vitro cell test; assay type: cell-based; conditions: 144 h, 20 ppm of active ingredient, 6 days incubation, liquid culture, absorbance, read-out: efficacy (inhibition of fungal growth)
Summary of the method: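 Liquid-culture germination/growth test: compounds in ≤1% final DMSO were added to spore-containing medium. Fungal growth was quantified spectrophotometrically after 6 days of incubation and expressed as inhibition versus untreated controls.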

Septoria tritici = test: B-9. Septoria tritici in vitro cell test; assay type: cell-based; conditions: Zymoseptoria tritici, 168 h; 20 ppm of active ingredient; 7 days incubation; liquid culture, absorbance; read-out: efficacy (inhibition of fungal growth)
Summary of the method: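 Compounds from DMSO stocks (final DMSO ≤1%) were added to liquid medium containing S. tritici spores to test inhibition of germination and mycelial growth. After 7 days, mycelium growth was read spectrometrically and inhibition derived from absorbance versus fungicide-free control wells.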

Pyrenophora teres [5] = test: B-10. Pyrenophora teres in vitro cell test; assay type: cell-based; conditions: 144 h, 20 ppm of active ingredient, 6 days incubation, liquid culture, absorbance, read-out: efficacy (inhibition of fungal growth)
Summary of the method: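 Liquid-culture assay on a P. teres spore suspension with compounds added to the medium from DMSO solutions, final DMSO ≤1%. Mycelium growth read spectrometrically after 6 days. Inhibition calculated from absorbance against untreated control wells.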

Botrytis cinerea [6] = test: B-11. Botrytis cinerea in vitro cell test; assay type: cell-based; conditions: 144 h, 20 ppm of active ingredient, 6 days incubation, liquid culture, absorbance, read-out: efficacy (inhibition of fungal growth)
Summary of the method: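 B. cinerea spores were grown in liquid culture with compound (DMSO ≤1% final). Mycelium growth was measured spectrometrically after 6 days, with inhibition taken as absorbance relative to untreated control wells.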

| Compound | pest or weed control at 500 ppm (Botrytis cinerea [1]) | pest or weed control at 500 ppm (Pyrenophora teres [2]) | pest or weed control at 500 ppm [3] | inhibition at 20 ppm (Alternaria alternata) | inhibition at 20 ppm [4] | inhibition at 20 ppm (Septoria tritici) | inhibition at 20 ppm (Pyrenophora teres [5]) | inhibition at 20 ppm (Botrytis cinerea [6]) |
| --- | --- | --- | --- | --- | --- | --- | --- | --- |
| O=C(NCC(F)c1ccc(Cl)cc1Cl)c1c(Oc2cccc(C(F)(F)F)c2)nnc2c1CCC2 (centres unmarked) [I-186] | 90 to 100% | 90 to 100% | 90 to 100% | 90 to 100% | 90 to 100% | 90 to 100% | 90 to 100% | 90 to 100% |
| Cc1ccc(C(F)(F)CNC(=O)c2c(Oc3cccc(C(F)(F)F)c3)nnc3cc(C)ccc23)c(Cl)c1 [I-245] | 90 to 100% | 90 to 100% | 80 to 89% | 90 to 100% | 90 to 100% | 80 to 89% | 90 to 100% | 90 to 100% |
| O=C(NC[C@H](F)c1ccc(Cl)cc1Cl)c1c(Oc2cccc(C3CC3)c2F)nnc2ccccc12 (racemic) [I-072] | 90 to 100% | 90 to 100% | 90 to 100% | 90 to 100% | 90 to 100% | 90 to 100% | 90 to 100% | 90 to 100% |
| Cc1ccc(C(F)(F)CNC(=O)c2c(Oc3cccc(Cl)c3F)nnc3c2CCCC3)c(Cl)c1 [I-140, 3-(3-chloro-2-fluoro-phenoxy)-N-[2-(2-chloro-4-methyl-phenyl)-2,2-difluoro-ethyl]-5,6,7,8-tetrahydrocinnoline-4-carboxamide] | 90 to 100% | 90 to 100% | 90 to 100% | 90 to 100% | 90 to 100% | 90 to 100% | 90 to 100% | 90 to 100% |
| Cc1cc(Br)ccc1C(F)(F)CNC(=O)c1c(Oc2cccc(C(F)F)c2)nnc2c1CCCC2 [I-150] | 90 to 100% | 90 to 100% | 90 to 100% | 90 to 100% | 90 to 100% | 90 to 100% | 90 to 100% | 90 to 100% |
| Cc1ccc(C(F)(F)CNC(=O)c2c(Oc3cccc(C(F)F)c3)nnc3c2CCCC3)c(C)c1 [I-129] | 90 to 100% | 90 to 100% | 90 to 100% | 90 to 100% | 90 to 100% | 90 to 100% | 90 to 100% | 90 to 100% |
| Cc1ccc2c(C(=O)NCC(F)(F)c3ccc(C)c(C)c3)c(Oc3cccc(C(F)(F)F)c3)nnc2c1 [I-246] | 90 to 100% | 80 to 89% | 80 to 89% | 90 to 100% | 90 to 100% | 90 to 100% | 90 to 100% | 90 to 100% |
| Cc1ccc(C(F)(F)CNC(=O)c2c(Oc3cccc(Cl)c3)nnc3c2CCCC3)c(C)c1 [I-121] | 90 to 100% | 90 to 100% | 90 to 100% | 90 to 100% | 90 to 100% | 90 to 100% | 90 to 100% | 90 to 100% |
| Cc1ccc(C(F)(F)CNC(=O)c2c(Oc3cccc(C4CC4)c3F)nnc3c2CCCC3)c(Cl)c1 [I-141] | 90 to 100% | 90 to 100% | 90 to 100% | 90 to 100% | 90 to 100% | 90 to 100% | 90 to 100% | 90 to 100% |
| Cc1ccc(C(F)(F)CNC(=O)c2c(Oc3cccc(C(F)(F)F)c3)nnc3c2CCC3)c(C)c1 [I-132] | 90 to 100% | 90 to 100% | 90 to 100% | 90 to 100% | 90 to 100% | 90 to 100% | 90 to 100% | 90 to 100% |
